# Assay results: patent US20250223561A1, “PHARMACEUTICAL COMPOSITION CONTAINING miR-140 AND METHOD FOR PRODUCING SAME” (HIROKO SCIENCE INC., priority 2022, published 2025)
# Values joined by “and” are separate entries in the source; they are usually repeats but may differ in a detail not shown here. Equal entries are not always repeated.
# Columns and labels:
# [1] = system: immortalized chondrocytes; assay: Total RNA extracted from exosomal fractions of immortalized chondrocytes treated with exosome release enhancers (Nano Drop); assay type: cell-based, human; conditions: for Nucleic Acid conc.: RNA from exosomal fraction of culture supernatant, cells cultured with 10 nM estradiol, enhancer added on day four (10 uM monensin, 20 nM aplimod, 10 uM D609), Nano Drop, dilution ratio 1; for Amount of RNAs: same samples, liquid volume 15 ul
# Protocol: (§1) The fifth passage of immortalized chondrocytes was passaged and seeded in four flasks with a volume of 75 cm^2 at a concentration of 1.5×10^6 cells per flask. Culturing was started after adding 10 nM of estradiol to three of them and without adding it to one of them. […] The medium was collected from each flask the following day and then centrifuged at 1,500 rpm for 5 min. The supernatants were further filtered through a filter with a pore size of 0.22 um and stored as exosomal fractions at −80° C. until an analysis of miR.
# MicroRNAs were extracted from the exosomal fractions in Example 2 using an exoRNAeasy Serum/Plasma Maxi Kit (Qiagen). The A260/A280 and A260/A230 ratios of the extracted RNAs were measured using a spectrophotometer Nano Drop One (Thermo Fisher Scientific), showing that the samples were free of protein and salt impurities. Electrophoresis of the samples was further conducted using Agilent 2100 Bioanalyzer (Aligent Technologies), confirming that only the target nucleic acids were contained.
# [2] = system: miR-140; assay: Expression of miR-140 in exosomal fractions by real-time PCR; assay type: cell-based, human; conditions: for Cp value: Hs miR-140_1 primer assay (miR-140-5p), single replicates n1, n2, low Cp value means a large amount of miR-140; for Cp value Average: Hs miR-140_1 primer assay, average of n1 and n2
# Protocol: as §1
# cDNA synthesis was conducted with the extracted RNAs using miScript II RT Kit (catalog No. 218160, Qiagen) under the following conditions.
# Real-time PCR reactions were conducted on a real-time PCR system (LightCycler 480, Roche) under the following conditions using miScript SYBR Green PCR Kit (catalog No. 218073, Qiagen) with the cDNAs synthesized as described above. The primer for the miR-140 measurement was Hs_miR-140_1 miScript Primer Assay (catalog No. MS00003500, has-miR-140-5p: MIMAT0000431).
Compound,Nucleic Acid conc. [1] [ng/µL],Amount of RNAs [1] [ng],Cp value ([2]; listed as 3-Apl),Cp value Average [2],Cp value ([2]; listed as 4-D),"amount of nucleic acid collected (comparison among treatments) ([1]; compared with control, aplimod and D609 samples)",miR-140 content compared with the other groups ([2]; from real-time PCR Cp values)
"Cc1cccc(/C=N/Nc2cc(N3CCOCC3)nc(OCCc3ccccn3)n2)c1 [Apl, aplimod]",179.7,2695.9,36.78 and 36.76,36.77,,,
"S=C(S)OC1CC2CC1C1CCCC21 (stereo not drawn) [D, D609]",206.3,3094.4,,36.87,36.84 and 36.89,,
"CC[C@@]1([C@@H]2O[C@@H]([C@H]3O[C@@](O)(CO)[C@H](C)C[C@@H]3C)C[C@@H]2C)CC[C@H]([C@]2(C)CC[C@]3(C[C@H](O)[C@@H](C)[C@@H]([C@@H](C)[C@@H](OC)[C@H](C)C(=O)O)O3)O2)O1 [Mo, monensin]",290.5,4357.6,,,,highest,nearly twice as much miR-140 as the others
